Columns and labels:
[1] = tested on: MYPT1 phosphorylation in mNph-OPC; assay: MYPT1 phosphorylation (sandwich ELISA, western blot) as ROCK target engagement; conditions: for Decrease of MYPT1 phosphorylation (ELISA): 4-hr mNph-OPC treatment
Experimental: Tris-glycine acrylamide-bysacrylamide gradient gel electrophoresis was performed as follows: After washing the cells with ice-cold PBS, protein lysates were made by adding 50 µl of PhosphoSafe extraction reagent (EMD Millipore) supplemented with antiprotease cocktail (cOmplete; Roche, Branford, CT) onto each 100-mm^2 cell culture plate. After detaching the cells with the help of a cell scraper and disrupting cell membranes by sonication, the protein extracts were centrifuged (10,000 g, 10 min, 4℃) and the supernatants separated. Protein content was measured by the BCA protein determination method (Biorad, Hercules, CA), and 30 µg of total protein was mixed with SDS sample buffer (Laemmli) supplemented with 1% β-mercaptoethanol. After heating the samples to 70℃ for 10 min, they were loaded onto 4% to 20% acryl-bysacrylamide gradient gels, and electrophoresis was carried out at 120 volts with constant amperage.
Resolved proteins were then transferred onto nitrocellulose membranes using the iBlot methodology and device (Life technologies). […] Secondary detection was performed using Li-Cor IRDye secondary anti-mouse and anti-rabbit antibodies, and near-infrared signal was detected by Li-Cor’s Odyssey imaging system.
We assessed MYPT1 phosphorylation in Nph-OPCs treated for 4 hr with ROCK inhibitors in a dose-response experiment and using a sandwich ELISA as a measuring method (MBL International).

[2] = tested on: hPSC-OPCs cocultured with rat dorsal root ganglion neurons; assay: Myelination in hPSC-OPC / rat DRG neuron cocultures (MBP/NF overlap); format: cell-based, human; conditions: compound for first 48 hr, 28 days coculture
Experimental: Human pluripotent stem cell-derived OPC (hSC-OPC)/[…] dorsal root ganglion (rDRG) cocultures were carried out as follows: 5,000 hES-OPCs were seeded on top of 14-day-old DRG neuron axons in each well of 96-well black μClear plates (Greiner). The cells were seeded in 100 μl of myelination media (MYL) for each well. Twenty-four hours after seeding, media were gently removed, and a fresh MYL medium that contained the compound of interest at a specific dilution (in 0.1% DMSO) was supplemented to the media (first feeding), and the total volume for each well was 200 μl. For each tested compound dose, four replicates were used. After 48 hr, the media were replenished by removing 100 μl of media, and fresh MYL medium (that contains 0.1% DMSO) was added to the wells. […]
The ArrayScan VTI HCS reader system (Cellomis, Thermo-scientific) was used for scanning 49 fields for each tested well under 10× objective. […] The four-parameter Hill-Slope curve fittings were generated by GraphPad Prism software using least squares fitting method, and EC50 values were calculated for the three major parameters of oligodendrocyte myelination: number of differentiated oligodendrocytes, areas of myelinated axons in pixels (MBP and NF overlap area), and number of myelinated regions (MBP and NF overlap count). […]

rat mixed glial OPCs = assay: Myelin protein expression in rat mixed glia-derived OPCs (qPCR, MBP ELISA); format: cell-based
Experimental: Rat postnatal OPCs were obtained as described elsewhere according to the original procedure of [McCarthy and […] (1980)]. In brief, postnatal Day 1 rat pups were sacrificed, and cerebral cortices dissected and mechanically dissociated in medium composed of DMEM, 10% heat inactivated fetal bovine serum, and 5 μg/ml penicillin/streptomycin. Dissociated cells were plated and maintained in 75-cm^2 culture flasks for 10 days, replenishing with fresh media at Days 3 and 7. At Day 10, the flasks were shaken on a heated (37°C) shaker for 1 hr at 110 rpm to separate loosely attached microglial cells. The medium was replenished, and the cells incubated for the remainder of the day. To dislodge OPCs from the astrocyte monolayer, flasks were shaken overnight (210 rpm, 37°C). […] Cells were then plated on PDL-coated tissue culture plastic and treated with test compounds. […] The results are presented as specific mRNA expression relative to either β-actin or β-tubulin, used as internal controls as indicated. OPCs isolated from rat mixed glial cultures are known to mature readily in the absence of mitogens achieving a premyelinating OL stage as determined by the expression of the cell surface sulfatide O4, and the myelin proteins MBP and PLP among others ([Armstrong, 1998]; [Barbarese & Pfeiffer, 1981]; [[…], 1999]; [Jung-[…], Schumacher, Robel, & Baulieu, 1996]; [Konola, Tyler, Yamamura, & Lees, 1991]). They also display marked morphological changes, progressing from bipolar to multibranched cells generating membranous structures, and probably represent a later developmental stage than Nph-OPC. In rat mixed glial OPCs, we measured myelin protein expression at the RNA level by qPCR and MBP production by ELISA (MBL International, Woburn, MA).

What does the source list for `C[C@@H](N)[C@H]1CC[C@H](C(=O)Nc2ccncc2)CC1.Cl.Cl` [Y0503, trans-4-[(1 R)-1-aminoethyl]-N-4-pyridinylcyclohexanecarboxamide dihydrochloride]?
Decrease of MYPT1 phosphorylation (ELISA) ([1]; 30 µM): ~80%; Decrease of MYPT1 phosphorylation (ELISA) ([1]; 100 µM): more than 80%; Duration of downregulation of MYPT1 phosphorylation (western blot) ([1]; control levels again after 24 hr of treatment): over 12 hr; Number and length of MBP-positive oligodendrocyte processes colocalized with NF-positive axons [2]: dose-response effect; Expression of MBP, PLP, and MOG mRNAs (qPCR) (rat mixed glial OPCs; 3 days maturation +4 days treatment, concentrations as low as 0.1 µM): significant increase; MBP at the protein level (ELISA) (rat mixed glial OPCs; treatments at 24 hr and 72 hr after plating): increased expression

From article PMC4189421, “Induction of Oligodendrocyte Differentiation and In Vitro Myelination by Inhibition of Rho-Associated Kinase” (ASN NEURO, 2014)
